# From ChEMBL document CHEMBL1143015, “Hyrtinadine A, a bis-indole alkaloid from a marine sponge” (J Nat Prod, 2007)
# Experiments:
# KB = experiment: Cytotoxicity against human KB cells; assay type: cell-based
# L1210 = experiment: Cytotoxicity against mouse L1210 cells; assay type: cell-based
smiles,measurement,setting,value
Oc1ccc2[nH]cc(-c3cnc(-c4c[nH]c5ccc(O)cc45)nc3)c2c1 [HYRTINADINE A],IC50,KB,3 µg/mL
same,IC50,L1210,1 µg/mL
